Measurements from US20250152552A1, “CANCER-CELL PROLIFERATION INHIBITOR AND CANCER-CELL-PROLIFERATION INHIBITION ENHANCER” (KYUSHU UNIVERSITY, NATIONAL UNIVERSITY CORPORATION, priority 2022, published 2025).

What was measured:
[1] = tested on: MC38 mouse colon cancer cell line; assay: Administration of EGC-M5 alone, subcutaneous MC38 tumor growth in mice (Comparative Example); format: in vivo; conditions: 16 days after transplantation; EGC-M5 5, 10, 20 and 30 mg/kg b.w. i.p. daily; vs control group, Tukey test
Procedure: After preparatory rearing, MC38 mouse colon cancer cell line was transplanted subcutaneously into the 6-weeks-old male C57BL/6 mice at an amount of 5.0×10^5 cells/mouse. Each group had 8 mice. EGC-M5 was dissolved in the PBS buffer containing 10% DMSO. 200 μL of EGC-M5 solution at a dose of 5 mg, 10 mg, 20 mg, and 30 mg/kg b.w. was intraperitoneally administered to the mice daily starting on day 4 after transplantation. The tumor volume was measured with the vernier calipers, and the growth of the tumor was evaluated with time.
Regarding to the mean (Mean) and the standard error (S.E.) of the tumor volume (natural logarithm) 16 days after transplantation, the significant difference between the control group (Control group) and the EGC-M5 administration group was assessed by Tukey's Multiple Comparison test.

[2] = mouse, oral administration; Biol. Pharm. Bull, 42, 212-221, 2019; cited from earlier work

## O=C1CC[C@H](Cc2cc(O)cc(O)c2)O1 [EGC-M5, (R)-5-(3,5-dihydroxyphenyl)-γ-valerolactone]
[1]
  tumor volume (natural logarithm): no significant differences were observed in the tumor volume values
[2]
  conjugates detected in serum: the sulfate conjugate and the glucuronic acid conjugate of the compound of 5-(3,5-dihydroxyphenyl)-γ-valerolactone are detected in the serum
